According to patent EP0535528A1, “Antibacterial 5-Nitro-1-methyl-imidazolyl-3-terbutyl-2-hydroxy-aryl-carbinols” (EURORESEARCH S.r.L., priority 1991, dated 1993):

Test: Direct mutation test (16 h treatment in the growth step)
Assay type: cell-based
Procedure: The tests are carried out on the compound EU11100 with or without metabolic activity for a treatment period of 16 h in the growth step. The used concentrations are 0.25-0.50 mg/ml without metabolic activation and 0.075-0.150 mg/ml with metabolic activation.

[1] = section A (without), 0.25 mg/ml
[2] = section A (without), 0.50 mg/ml

COc1cc(C(O)c2ncc([N+](=O)[O-])n2C)c(O)c(C(C)(C)C)c1 (centres unmarked) [EU11100, 5-nitro-1-methyl-imidazolyl-3-terbutyl-2-hydroxy-5-methoxy-phenyl-carbinol]
Frequency of: Mutation [1]: 1.60
Survival (%) [1]: 71.1%
Frequency of: Mutation [2]: 0.00
Survival (%) [2]: 36.4%
Frequency of: Mutation (section B (with), 0.075 mg/ml): 2.11
Survival (%) (section B (with), 0.075 mg/ml): 89.9%
Frequency of: Mutation (section B (with), 0.150 mg/ml): 3.22
Survival (%) (section B (with), 0.150 mg/ml): 29.5%
